Patent publication US10829520B2, “Beta-hairpin peptidomimetics” (POLYPHOR AG, priority 2015, dated 2020)
Where a SMILES comes first, the peptide text is derived from it. Bridges are numbered along the chain shown (N, C = ends). Roman numbers before positions name the chains, in order. [ ]: non-standard residue; d: D form. Tle = CC(C)(C)[C@H](N)C(=O)O; dDab = NCC[C@@H](N)C(=O)O; Nle = CCCC[C@H](N)C(=O)O; Orn = NCCC[C@H](N)C(=O)O; Dab = NCC[C@H](N)C(=O)O

How the values were obtained:
Assay type in all cases: cell-based
[1] = system: human red blood cells (hRBC); experiment: Hemolysis of human red blood cells; details: red cells of human, 1 h
How it was run: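 Percent hemolysis = OD540 of peptide-treated supernatant relative to the 2.5% Triton X-100 (100%) control, PBS containing 0.001% acetic acid defining 0%. Peptides tested at 100 μg/mL against 20% (v/v) washed human RBC, 1 h, 37 °C, 300 rpm.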

[2] = system: Acinetobacter baumannii 872842; details: 872842
Escherichia coli 926415 = details: 926415
[3] = system: Klebsiella pneumoniae 968733; details: 968733
[4] = system: Escherichia coli ATCC 25922; details: ATCC 25922
How it was run: (§1)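 Antibacterial activity is measured as MIC (μg/mL) by standard CLSI microdilution. Inocula of about 10^6 CFU/mL in MH-II broth meet two-fold peptide dilutions in medium with 0.002% Polysorbate 80, and growth is scored visually after 18-20 hours at 35° C.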

[5] = system: Acinetobacter baumannii DSM 30008; details: DSM 30008
How it was run: as §1

[6] = system: Pseudomonas aeruginosa ATCC 27853; details: ATCC 27853
How it was run: as §1

[7] = system: Klebsiella pneumoniae SSI #3010; details: SSI #3010
How it was run: as §1

| SMILES | Acinetobacter baumannii 872842 MIC [2] | Escherichia coli 926415 MIC (Escherichia coli 926415) | Klebsiella pneumoniae 968733 MIC [3] | Escherichia coli ATCC 25922 MIC [4] | Acinetobacter baumannii DSM 30008 MIC [5] | Pseudomonas aeruginosa ATCC 27853 MIC [6] | Klebsiella pneumoniae SSI #3010 MIC [7] | Hemolysis at 100 μg/mL [1]; 100 | Hemolysis at 100 μg/mL ([1]; 100 μg/mL) |
| --- | --- | --- | --- | --- | --- | --- | --- | --- | --- |
| CCCC[C@@H]1NC(=O)[C@@H]2CCCN2C(=O)[C@H]2CCCN2C(=O)[C@H](CO)NC(=O)[C@H](C)NC(=O)[C@H](C(C)(C)C)NC(=O)[C@H](CCN)NC(=O)[C@H](Cc2c[nH]c3ccccc23)NC(=O)[C@H](CCN)NC(=O)[C@H](CCC(=O)N[C@H](C(=O)N[C@@H](CCN)C(=O)N[C@H]2CCNC(=O)[C@H]([C@@H](C)O)NC(=O)[C@H](CCN)NC(=O)[C@H](CCN)NC(=O)[C@H](CC(C)C)NC(=O)[C@@H](Cc3ccccc3)NC(=O)[C@H](CCN)NC2=O)[C@@H](C)O)NC(=O)[C@H](CCCN)NC(=O)[C@H](CCN)NC(=O)[C@H](Cc2ccc(O)cc2)NC(=O)[C@H](CO)NC1=O [Ex. 6] (I: cyclo([Nle]SY[Dab][Orn]E[Dab]W[Dab][Tle]AS[dP]P) / II: T[Dab][Dab][Dab][dF]L[Dab][Dab]T; amide I:6-II:N; lactam II:3-II:C) | 2 µg/mL | 1 µg/mL | 2 µg/mL | 0.25 µg/mL | 2 µg/mL | 0.5 µg/mL | 0.5 µg/mL | <1% |  |
| CC(C)C[C@@H]1NC(=O)[C@@H](Cc2ccccc2)NC(=O)[C@H](CCN)NC(=O)[C@@H](NC(=O)[C@H](CCN)NC(=O)[C@@H](NC(=O)[C@H](CCN)NC(=O)[C@H]2CC(=O)N[C@@H](CCN)C(=O)N[C@@H](Cc3c[nH]c4ccccc34)C(=O)N[C@@H](CCN)C(=O)N[C@@H](C(C)(C)C)C(=O)N[C@@H](C)C(=O)N[C@@H](CO)C(=O)N3CCC[C@@H]3C(=O)N3CCC[C@H]3C(=O)N[C@@H](C(C)C)C(=O)N[C@@H](CO)C(=O)N[C@@H](Cc3ccc(O)cc3)C(=O)N[C@@H](CCN)C(=O)N[C@@H](CCCN)C(=O)N2)[C@@H](C)O)CCNC(=O)[C@H]([C@@H](C)O)NC(=O)[C@H](CCN)NC(=O)[C@H](CCN)NC1=O [Ex. 8] ([Dab]W[Dab][Tle]AS[dP]PVSY[Dab][Orn][dD][Dab]T[Dab][Dab][Dab][dF]L[Dab][Dab]T; lactam 18-C, N-14) | 0.5 µg/mL | 1 µg/mL | 2 µg/mL | 0.25 µg/mL | 0.5 µg/mL | 0.25 µg/mL | 0.25 µg/mL | 1% |  |
| CCCC[C@@H]1NC(=O)[C@@H]2CCCN2C(=O)[C@H]2CCCN2C(=O)[C@H](CO)NC(=O)[C@H](C)NC(=O)[C@H](C(C)(C)C)NC(=O)[C@@H](NC(=O)[C@H](Cc2c[nH]c3ccccc23)NC(C)=O)CSSC[C@@H](C(=O)N[C@@H](CCN)C(=O)N[C@H](C(=O)N[C@@H](CCN)C(=O)N[C@H]2CCNC(=O)[C@H]([C@@H](C)O)NC(=O)[C@H](CCN)NC(=O)[C@H](CCN)NC(=O)[C@H](CC(C)C)NC(=O)[C@@H](Cc3ccccc3)NC(=O)[C@H](CCN)NC2=O)[C@@H](C)O)NC(=O)[C@H](Cc2ccc(O)cc2)NC(=O)[C@H](CO)NC1=O [Ex. 12] (Ac-WC[Tle]AS[dP]P[Nle]SYC[Dab]T[Dab][Dab][Dab][dF]L[Dab][Dab]T; disulfide 2-11; lactam 15-C) | 0.125 µg/mL | 0.125 µg/mL | 0.5 µg/mL | 0.125 µg/mL | 0.0625 µg/mL | 0.5 µg/mL | 0.125 µg/mL |  | <1% |
| CCCC[C@@H]1NC(=O)[C@@H]2CCCN2C(=O)[C@H]2CCCN2C(=O)[C@H](CO)NC(=O)[C@H](C)NC(=O)[C@H](C(C)(C)C)NC(=O)[C@@H](NC(=O)[C@H](Cc2c[nH]c3ccccc23)NC(C)=O)CSSC[C@@H](C(=O)N[C@@H](CCCN)C(=O)N[C@H](C(=O)N[C@@H](CCN)C(=O)N[C@H]2CCNC(=O)[C@H]([C@@H](C)O)NC(=O)[C@H](CCN)NC(=O)[C@H](CCN)NC(=O)[C@H](CC(C)C)NC(=O)[C@@H](Cc3ccccc3)NC(=O)[C@H](CCN)NC2=O)[C@@H](C)O)NC(=O)[C@H](Cc2ccc(O)cc2)NC(=O)[C@H](CO)NC1=O [Ex. 13] (Ac-WC[Tle]AS[dP]P[Nle]SYC[Orn]T[Dab][Dab][Dab][dF]L[Dab][Dab]T; disulfide 2-11; lactam 15-C) | 0.25 µg/mL | 0.5 µg/mL | 1 µg/mL | 0.5 µg/mL | 0.125 µg/mL | 0.5 µg/mL | 0.5 µg/mL |  | 1% |
| CCCC[C@@H]1NC(=O)[C@@H]2CCCN2C(=O)[C@H]2CCCN2C(=O)[C@H](CO)NC(=O)[C@H](C)NC(=O)[C@H](C(C)(C)C)NC(=O)[C@@H](NC(=O)[C@H](Cc2c[nH]c3ccccc23)NC(C)=O)CCC(=O)NCC[C@@H](C(=O)N[C@@H](CCN)C(=O)N[C@H](C(=O)N[C@@H](CCN)C(=O)N[C@H]2CCNC(=O)[C@H]([C@@H](C)O)NC(=O)[C@H](CCN)NC(=O)[C@H](CCN)NC(=O)[C@H](CC(C)C)NC(=O)[C@@H](Cc3ccccc3)NC(=O)[C@H](CCN)NC2=O)[C@@H](C)O)NC(=O)[C@H](Cc2ccc(O)cc2)NC(=O)[C@H](CO)NC1=O [Ex. 14] (Ac-WE[Tle]AS[dP]P[Nle]SY[Dab][Dab]T[Dab][Dab][Dab][dF]L[Dab][Dab]T; lactam 2-11, 15-C) | 1 µg/mL | 4 µg/mL | 8 µg/mL | 0.5 µg/mL | 0.5 µg/mL | 1 µg/mL | 1 µg/mL | <1% |  |

More lines, main results first:

| Acinetobacter baumannii 872842 MIC [2] | Escherichia coli 926415 MIC (Escherichia coli 926415) | Klebsiella pneumoniae 968733 MIC [3] | Escherichia coli ATCC 25922 MIC [4] | Acinetobacter baumannii DSM 30008 MIC [5] | Pseudomonas aeruginosa ATCC 27853 MIC [6] | Klebsiella pneumoniae SSI #3010 MIC [7] | SMILES | Hemolysis at 100 μg/mL [1]; 100 | Hemolysis at 100 μg/mL ([1]; 100 μg/mL) |
| --- | --- | --- | --- | --- | --- | --- | --- | --- | --- |
| 1 µg/mL | 0.25 µg/mL | 2 µg/mL | 0.125 µg/mL | 1 µg/mL | 0.25 µg/mL | 0.25 µg/mL | CCCC[C@@H]1NC(=O)[C@@H]2CCCN2C(=O)[C@H]2CCCN2C(=O)[C@H](CO)NC(=O)[C@H](C)NC(=O)[C@H](C(C)(C)C)NC(=O)[C@H](CCN)NC(=O)[C@H](Cc2c[nH]c3ccccc23)NC(=O)[C@H](CCN)NC(=O)[C@@H](CCN)NC(=O)[C@H](CCC(=O)N[C@@H](CCN)C(=O)N[C@H](C(=O)N[C@@H](CCN)C(=O)N[C@H]2CCNC(=O)[C@H]([C@@H](C)O)NC(=O)[C@H](CCN)NC(=O)[C@H](CCN)NC(=O)[C@H](CC(C)C)NC(=O)[C@@H](Cc3ccccc3)NC(=O)[C@H](CCN)NC2=O)[C@@H](C)O)NC(=O)[C@H](CCN)NC(=O)[C@H](Cc2ccc(O)cc2)NC(=O)[C@H](CO)NC1=O [Ex. 7] (I: cyclo(W[Dab][Tle]AS[dP]P[Nle]SY[Dab]E[dDab][Dab]) / II: [Dab]T[Dab][Dab][Dab][dF]L[Dab][Dab]T; amide I:12-II:N; lactam II:4-II:C) | 1% |  |
| 2 µg/mL | 1 µg/mL | 2 µg/mL | 0.25 µg/mL | 0.25 µg/mL | 0.5 µg/mL | 0.5 µg/mL | CCCC[C@@H]1NC(=O)[C@@H]2CCCN2C(=O)[C@H]2CCCN2C(=O)[C@H](CO)NC(=O)[C@H](C)NC(=O)[C@H](C(C)(C)C)NC(=O)[C@H](CCN)NC(=O)[C@H](Cc2c[nH]c3ccccc23)NC(=O)[C@H](CCN)NC(=O)[C@@H](CCC(=O)N[C@@H](CCN)C(=O)N[C@H](C(=O)N[C@@H](CCN)C(=O)N[C@H]2CCNC(=O)[C@H]([C@@H](C)O)NC(=O)[C@H](CCN)NC(=O)[C@H](CCN)NC(=O)[C@H](CC(C)C)NC(=O)[C@@H](Cc3ccccc3)NC(=O)[C@H](CCN)NC2=O)[C@@H](C)O)NC(=O)[C@H](CCCN)NC(=O)[C@H](CCN)NC(=O)[C@H](Cc2ccc(O)cc2)NC(=O)[C@H](CO)NC1=O [Ex. 9] (I: cyclo([Nle]SY[Dab][Orn][dE][Dab]W[Dab][Tle]AS[dP]P) / II: [Dab]T[Dab][Dab][Dab][dF]L[Dab][Dab]T; amide I:6-II:N; lactam II:4-II:C) | 1% |  |
| 1 µg/mL | 0.5 µg/mL | 2 µg/mL | 0.125 µg/mL | 1 µg/mL | 0.5 µg/mL | 0.25 µg/mL | CCCC[C@@H]1NC(=O)[C@@H]2CCCN2C(=O)[C@H]2CCCN2C(=O)[C@H](CO)NC(=O)[C@H](C)NC(=O)[C@H](C(C)(C)C)NC(=O)[C@H](CCN)NC(=O)[C@H](Cc2c[nH]c3ccccc23)NC(=O)[C@H](CCC(=O)N[C@@H](CCN)C(=O)N[C@H](C(=O)N[C@@H](CCN)C(=O)N[C@H]2CCNC(=O)[C@H]([C@@H](C)O)NC(=O)[C@H](CCN)NC(=O)[C@H](CCN)NC(=O)[C@H](CC(C)C)NC(=O)[C@@H](Cc3ccccc3)NC(=O)[C@H](CCN)NC2=O)[C@@H](C)O)NC(=O)[C@@H](CCN)NC(=O)[C@H](CCCN)NC(=O)[C@H](CCN)NC(=O)[C@H](Cc2ccc(O)cc2)NC(=O)[C@H](CO)NC1=O [Ex. 10] (I: cyclo([Nle]SY[Dab][Orn][dDab]EW[Dab][Tle]AS[dP]P) / II: [Dab]T[Dab][Dab][Dab][dF]L[Dab][Dab]T; amide I:7-II:N; lactam II:4-II:C) | 1% |  |
